Experiments:
[1] = Oral bioavailability in mouse at 5 mg/kg; format: ADME, organism-based; conditions: in vivo
[2] = Clearance in mouse plasma at 0.2 mg/kg, iv or 5 mg/kg, po; format: ADME, organism-based
[3] = Cmax in mouse plasma at 5 mg/kg, po; format: ADME, organism-based; parameters: dose 5 mg/kg, route oral
[4] = Volume of distribution in mouse plasma at 0.2 mg/kg, iv or 5 mg/kg, po; format: ADME, organism-based; conditions: read-out: Vdss
[5] = Half life in mouse plasma at 0.2 mg/kg, iv or 5 mg/kg, po; format: ADME, organism-based
[6] = AUC in mouse plasma at 5 mg/kg, po; format: ADME, organism-based; parameters: dose 5 mg/kg, route oral
Mus musculus [7] = assay: Reduction of triglyceride level in human Apo-A1 transgenic C57B6 mouse at 20 mg/kg, po bid after 5 days; format: functional; parameters: scale not given: the % may be the effect or the level left
Mus musculus [8] = assay: Reduction of VLDL cholesterol level in human Apo-A1 transgenic C57B6 mouse at 20 mg/kg, po bid after 5 days; format: functional; parameters: scale not given: the % may be the effect or the level left
Mus musculus [9] = assay: Reduction of LDL cholesterol level in human Apo-A1 transgenic C57B6 mouse at 20 mg/kg, po bid after 5 days; format: functional; parameters: scale not given: the % may be the effect or the level left
Mus musculus [10] = assay: Elevation of HDL cholesterol level in human Apo-A1 transgenic C57B6 mouse at 20 mg/kg, po bid after 5 days; format: functional
[11] = target: T1, Peroxisome proliferator-activated receptor alpha (Homo sapiens, UniProt Q07869)
T1 sequence (Q07869 whole entry): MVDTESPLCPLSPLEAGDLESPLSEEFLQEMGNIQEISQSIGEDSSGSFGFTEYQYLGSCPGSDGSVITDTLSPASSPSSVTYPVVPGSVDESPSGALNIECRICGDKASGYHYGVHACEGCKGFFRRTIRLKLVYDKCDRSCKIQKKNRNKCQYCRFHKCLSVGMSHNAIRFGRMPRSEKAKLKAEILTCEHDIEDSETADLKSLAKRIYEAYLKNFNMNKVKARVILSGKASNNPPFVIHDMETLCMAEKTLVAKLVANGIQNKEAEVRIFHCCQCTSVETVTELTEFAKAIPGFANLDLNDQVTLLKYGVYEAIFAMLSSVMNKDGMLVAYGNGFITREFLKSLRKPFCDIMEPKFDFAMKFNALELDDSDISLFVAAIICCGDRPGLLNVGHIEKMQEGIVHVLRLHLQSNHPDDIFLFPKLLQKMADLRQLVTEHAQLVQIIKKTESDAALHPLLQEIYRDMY
Description: Agonist activity at human PPARalpha assessed as receptor activation by cell based assay

[12] = target: T2, Peroxisome proliferator-activated receptor alpha (Mus musculus, UniProt P23204)
T2 sequence (P23204 whole entry): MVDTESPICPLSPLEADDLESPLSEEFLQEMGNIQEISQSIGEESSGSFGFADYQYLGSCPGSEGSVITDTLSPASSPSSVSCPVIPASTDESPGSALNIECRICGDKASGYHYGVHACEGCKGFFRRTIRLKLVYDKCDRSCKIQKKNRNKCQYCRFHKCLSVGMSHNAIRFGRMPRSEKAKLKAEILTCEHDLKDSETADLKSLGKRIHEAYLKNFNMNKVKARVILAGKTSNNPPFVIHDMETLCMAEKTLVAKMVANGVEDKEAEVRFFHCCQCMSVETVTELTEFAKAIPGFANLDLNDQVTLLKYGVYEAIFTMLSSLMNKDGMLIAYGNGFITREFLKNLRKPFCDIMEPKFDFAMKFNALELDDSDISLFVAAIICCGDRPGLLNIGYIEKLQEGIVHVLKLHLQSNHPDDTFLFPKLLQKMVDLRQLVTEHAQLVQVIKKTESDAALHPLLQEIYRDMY
Description: (§1) Agonist activity at mouse PPARalpha assessed as receptor activation by cell based assay

[13] = target: T3, Peroxisome proliferator-activated receptor delta (Homo sapiens, UniProt Q03181)
T3 sequence (Q03181 whole entry): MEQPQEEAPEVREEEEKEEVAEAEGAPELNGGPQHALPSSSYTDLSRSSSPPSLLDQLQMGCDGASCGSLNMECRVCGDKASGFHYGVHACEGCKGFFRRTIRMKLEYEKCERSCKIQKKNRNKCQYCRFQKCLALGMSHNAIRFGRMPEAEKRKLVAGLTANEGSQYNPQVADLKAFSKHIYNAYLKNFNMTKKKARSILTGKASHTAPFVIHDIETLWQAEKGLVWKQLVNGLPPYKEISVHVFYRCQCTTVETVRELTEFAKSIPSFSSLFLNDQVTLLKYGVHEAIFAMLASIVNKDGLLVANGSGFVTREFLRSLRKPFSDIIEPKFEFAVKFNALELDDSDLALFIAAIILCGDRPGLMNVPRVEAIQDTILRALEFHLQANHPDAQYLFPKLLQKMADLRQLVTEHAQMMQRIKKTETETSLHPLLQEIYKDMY
Description: Agonist activity at human PPARdelta assessed as receptor activation by cell based assay

[14] = target: T4, Peroxisome proliferator-activated receptor delta (Mus musculus, UniProt P35396)
T4 sequence (P35396 whole entry): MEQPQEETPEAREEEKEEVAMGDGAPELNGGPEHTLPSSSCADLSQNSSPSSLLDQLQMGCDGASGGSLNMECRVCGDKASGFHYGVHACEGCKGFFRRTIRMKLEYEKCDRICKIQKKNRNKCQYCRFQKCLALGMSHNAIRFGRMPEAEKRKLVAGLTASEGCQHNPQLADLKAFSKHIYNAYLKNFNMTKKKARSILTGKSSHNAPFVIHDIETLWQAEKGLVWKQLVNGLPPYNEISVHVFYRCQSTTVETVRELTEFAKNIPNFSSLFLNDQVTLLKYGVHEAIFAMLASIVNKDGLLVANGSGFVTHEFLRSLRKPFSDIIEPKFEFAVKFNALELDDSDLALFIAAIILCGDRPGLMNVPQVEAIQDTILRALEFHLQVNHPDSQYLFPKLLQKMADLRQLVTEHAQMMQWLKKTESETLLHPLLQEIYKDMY
Description: Agonist activity at mouse PPARdelta assessed as receptor activation by cell based assay

[15] = target: T5, Peroxisome proliferator-activated receptor gamma (Homo sapiens, UniProt P37231)
T5 sequence (P37231 whole entry): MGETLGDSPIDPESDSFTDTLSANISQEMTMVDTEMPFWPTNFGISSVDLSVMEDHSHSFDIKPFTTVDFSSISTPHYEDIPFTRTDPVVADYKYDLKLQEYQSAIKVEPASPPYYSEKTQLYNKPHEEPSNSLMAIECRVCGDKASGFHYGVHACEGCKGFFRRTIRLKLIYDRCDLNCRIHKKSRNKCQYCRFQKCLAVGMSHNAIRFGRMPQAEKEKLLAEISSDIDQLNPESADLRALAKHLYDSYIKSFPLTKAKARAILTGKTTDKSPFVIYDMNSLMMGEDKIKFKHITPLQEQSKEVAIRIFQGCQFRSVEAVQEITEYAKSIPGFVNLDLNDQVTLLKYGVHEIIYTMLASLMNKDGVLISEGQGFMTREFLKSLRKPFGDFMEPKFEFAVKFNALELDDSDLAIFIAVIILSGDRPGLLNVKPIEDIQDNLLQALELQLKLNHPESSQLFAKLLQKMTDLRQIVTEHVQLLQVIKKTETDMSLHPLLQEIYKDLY
Description: Agonist activity at human PPARgamma assessed as receptor activation by cell based assay

[16] = target: T6, Peroxisome proliferator-activated receptor gamma (Mus musculus, UniProt P37238)
T6 sequence (P37238 whole entry): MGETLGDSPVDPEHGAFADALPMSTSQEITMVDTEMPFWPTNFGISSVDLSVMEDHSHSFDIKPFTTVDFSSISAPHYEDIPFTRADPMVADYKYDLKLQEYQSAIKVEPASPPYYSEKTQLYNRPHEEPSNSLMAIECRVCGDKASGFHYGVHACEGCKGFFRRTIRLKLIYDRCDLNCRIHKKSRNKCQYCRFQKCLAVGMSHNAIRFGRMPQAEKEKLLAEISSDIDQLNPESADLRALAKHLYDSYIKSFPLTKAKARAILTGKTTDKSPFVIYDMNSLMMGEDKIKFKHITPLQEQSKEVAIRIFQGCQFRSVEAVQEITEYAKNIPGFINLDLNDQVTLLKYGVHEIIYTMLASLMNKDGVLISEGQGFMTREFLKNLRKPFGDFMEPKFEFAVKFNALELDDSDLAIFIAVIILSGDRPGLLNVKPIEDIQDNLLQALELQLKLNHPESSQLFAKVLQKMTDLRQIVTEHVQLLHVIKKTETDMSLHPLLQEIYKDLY
Description: Agonist activity at mouse PPARgamma assessed as receptor activation by cell based assay

[17] = target: T7, Peroxisome proliferator-activated receptor alpha (Mus musculus) (UniProt P23204)
T7 sequence (whole entry): T2 sequence (P23204 whole entry)
Description: as §1

- bioavailability [1]: 16%
- clearance [2]: 0.78 mL/min/kg
- Cmax [3]: 4520 ng/mL
- Vd [4]: 0.22 L/kg
- half-life [5]: 4.9 h
- AUC [6]: 18800 ng·h/mL
- EC50 [11]: 5 nM
- EC50 [12]: 20 nM
- EC50 [13]: > 10000 nM
- EC50 [14]: > 10000 nM
- EC50 [15]: 1100 nM
- EC50 [16]: 600 nM
- Activity [17]: 123%
SMILES: O=C(NCc1ccc(NS(=O)(=O)C(F)(F)F)cc1)c1ccc(-c2ccc(Cl)cc2)cc1
- Activity (Mus musculus [7]): -69%
- Activity (Mus musculus [8]): -85%
- Activity (Mus musculus [9]): -55%
- Activity (Mus musculus [10]): 102%

Reference: ChEMBL document CHEMBL1140804, “Design, synthesis and evaluation of trifluoromethane sulfonamide derivatives as new potent and selective peroxisome proliferator-activated receptor alpha agonists” (Bioorg Med Chem Lett, 2008)
